Measured values reported in US20100022393A1, “Glyphosate applications in aquaculture” (priority 2008, published 2010).

Experiments:
Nannochloropsis culture = assay: Nannochloropsis growth in F2 media in seawater, optical density at 680 and 750 nm; format: cell-based; conditions: for effect on Nannochloropsis growth: various concentrations, F2 media in seawater, after approximately six days, optical density 680 and 750 nm; for IC50: 144 h, read-out: concentration that inhibited Nannochloropsis growth by approximately fifty percent (50%)
Protocol: According to one exemplary method, thirty (30) microliters of a Nannochloropsis culture was introduced into seven (7) milliliters of F2 media in seawater. The mixture was distributed evenly between six well plates. Glyphosate was added at various concentrations. Additional well plates were inoculated with the same Nannochloropis culture, however, the well plates were not treated with glyphosate. After approximately six days, optical density measurements at both 680 and 750 nanometers were taken in triplicate for each of the various glyphosate concentrations.
According to one exemplary method, thirty (30) microliters of a Nannochloropsis culture were inoculated into seven (7) milliliters of F2 media in seawater. The mixture was distributed evenly between six well plates. Ammonium chloride was added at various concentrations. Additional well plates were inoculated with the same Nannochloropis culture, but were not treated with ammonium chloride. After approximately six days, optical density measurements at both 680 and 750 nanometers were taken in triplicate for each of the various ammonium chloride concentrations.
According to one exemplary method, thirty (30) microliters of a Nannochloropsis culture were inoculated into seven (7) milliliters of F2 media in seawater. The mixture was distributed evenly between six well plates. Ammonium hydroxide was added at various concentrations. Additional well plates were inoculated with the same Nannochloropsis culture, but were not treated with ammonium hydroxide. After approximately six days, optical density measurements at both 680 and 750 nanometers were taken in triplicate for each of the various ammonium hydroxide concentrations.
According to one exemplary method, thirty (30) microliters of a Nannochloropsis culture was introduced into seven (7) milliliters of F2 media in seawater. The mixture was distributed evenly between six well plates. Glufosinate was added at various concentrations. Additional well plates were inoculated with the same Nannochloropsis culture, however, the well plates were not treated with glufosinate. After approximately six days, optical density measurements at both 680 and 750 nanometers were taken in triplicate for each of the various glufosinate concentrations.

Dunaliella culture = assay: Dunaliella growth in F2 media in seawater, optical density at 680 and 750 nm; format: cell-based; conditions: for effect on Dunaliella growth: various concentrations, F2 media in seawater, after approximately six days, optical density 680 and 750 nm
Protocol: According to one exemplary method, thirty (30) microliters of a Dunaliella culture were inoculated into seven (7) milliliters of F2 media within seawater. The mixture was distributed evenly between six well plates. Glyphosate was added at various concentrations. Additional well plates were inoculated with the same Dunaliella culture, but were not treated with glyphosate. After approximately six days, optical density measurements at both 680 and 750 nanometers were taken in triplicate for each of the various glyphosate concentrations.
According to one exemplary method, thirty (30) microliters of a Dunaliella culture were inoculated into seven (7) milliliters of F2 media in seawater. The mixture was distributed evenly between six well plates. Ammonium chloride was added at various concentrations. Additional well plates were inoculated with the same Dunaliella culture, but were not treated with ammonium chloride. After approximately six days, optical density measurements at both 680 and 750 nanometers were taken in triplicate for each of the various ammonium chloride concentrations.
According to one exemplary method, thirty (30) microliters of a Dunaliella culture were inoculated into seven (7) milliliters of F2 media in seawater. The mixture was distributed evenly between six well plates. Ammonium hydroxide was added at various concentrations. Additional well plates were inoculated with the same Dunaliella culture, but were not treated with ammonium hydroxide. After approximately six days, optical density measurements at both 680 and 750 nanometers were taken in triplicate for each of the various ammonium hydroxide concentrations.

Row | SMILES | effect on Nannochloropsis growth (Nannochloropsis culture) | effect on Dunaliella growth (Dunaliella culture) | IC50 (Nannochloropsis culture) [µM] | IC50 (Dunaliella culture; 144 h, read-out: concentration that inhibited Dunaliella growth by approximately fifty percent (50%)) [µM]
1 | Cl.N [ammonium chloride] | did not inhibit Nannochloropsis growth | did not inhibit Dunaliella growth |  | 
2 | N [ammonium hydroxide] | did not inhibit Nannochloropsis growth | did not inhibit Dunaliella growth |  | 
3 | CP(=O)(O)CCC(N)C(=O)O (stereo not shown) [glufosinate] | controlled (inhibited) Nannochloropsis growth |  | ~25 | 
4 | O=C(O)CNCP(=O)(O)O [glyphosate] | controlled (inhibited) Nannochloropsis growth | inhibited Dunaliella growth | ~800 | ~1200
